Assay results as given in ChEMBL document CHEMBL4342450, “Antitumor Activity of Ohmyungsamycin A through the Regulation of the Skp2-p27 Axis and MCM4 in Human Colorectal Cancer Cells” (J Nat Prod, 2020).
The source made the active and inactive calls. The rule behind the calls is not given here. *1 amine or outer side, *2 acyl side, *3 side chain or, on linkers, in order; H or OH if unused. Where a SMILES comes first, the peptide text is derived from it. Bridges are numbered along the chain shown (N, C = ends). [ ]: non-standard residue; d: D form. Phe(3R-OH) = O=C([C@@H](N[*:1])[C@H](O[*:3])c1ccccc1)[*:2]; NMeTrp(4-OMe) = CN[C@@H](Cc1c[nH]c2cccc(OC)c12)C(=O)O; NMeT = CN[C@H](C(=O)O)[C@@H](C)O; NMeL = CN[C@@H](CC(C)C)C(=O)O; NMeV = CN[C@H](C(=O)O)C(C)C

Legend:
HCT-116 [1] = assay: Induction of cell cycle arrest in human HCT116 cells assessed as accumulation at G0/G1 phase at 5 uM incubated for 18 hrs by propidium iodide staining based flow cytometry (reference value: 43.3%); assay type: functional
HCT-116 [2] = assay: Downregulation of SKP2 gene expression in human HCT116 cells assessed as fold change at 15 uM incubated for 24 hrs by cDNA microarray analysis relative to control; assay type: functional
HCT-116 [3] = assay: Downregulation of BMP4 gene expression in human HCT116 cells assessed as fold change at 15 uM incubated for 24 hrs by cDNA microarray analysis relative to control; assay type: functional
HCT-116 [4] = assay: Downregulation of CDCA7 gene expression in human HCT116 cells assessed as fold change at 15 uM incubated for 24 hrs by cDNA microarray analysis relative to control; assay type: functional
HCT-116 [5] = assay: Downregulation of CYP24A1 gene expression in human HCT116 cells assessed as fold change at 15 uM incubated for 24 hrs by cDNA microarray analysis relative to control; assay type: functional
HCT-116 [6] = assay: Downregulation of HIST1H2BM gene expression in human HCT116 cells assessed as fold change at 15 uM incubated for 24 hrs by cDNA microarray analysis relative to control; assay type: functional
HCT-116 [7] = assay: Downregulation of TMSB15A gene expression in human HCT116 cells assessed as fold change at 15 uM incubated for 24 hrs by cDNA microarray analysis relative to control; assay type: functional
HCT-116 [8] = assay: Downregulation of FAM111B gene expression in human HCT116 cells assessed as fold change at 15 uM incubated for 24 hrs by cDNA microarray analysis relative to control; assay type: functional
HCT-116 [9] = assay: Downregulation of HSPA1B gene expression in human HCT116 cells assessed as fold change at 15 uM incubated for 24 hrs by cDNA microarray analysis relative to control; assay type: functional
HCT-116 [10] = assay: Downregulation of INSIG1 gene expression in human HCT116 cells assessed as fold change at 15 uM incubated for 24 hrs by cDNA microarray analysis relative to control; assay type: functional
HCT-116 [11] = assay: Downregulation of SCARA3 gene expression in human HCT116 cells assessed as fold change at 15 uM incubated for 24 hrs by cDNA microarray analysis relative to control; assay type: functional
HCT-116 [12] = assay: Downregulation of KITLG gene expression in human HCT116 cells assessed as fold change at 15 uM incubated for 24 hrs by cDNA microarray analysis relative to control; assay type: functional
HCT-116 [13] = assay: Induction of cell cycle arrest in human HCT116 cells assessed as accumulation at G2/M phase at 5 uM incubated for 18 hrs by propidium iodide staining based flow cytometry (reference value: 25.1%); assay type: functional
HCT-116 [14] = assay: Induction of cell cycle arrest in human HCT116 cells assessed as accumulation at sub-G1 phase at 5 uM incubated for 18 hrs by propidium iodide staining based flow cytometry (reference value: 0.9%); assay type: functional
HCT-116 [15] = assay: Induction of cell cycle arrest in human HCT116 cells assessed as accumulation at G0/G1 phase at 10 uM incubated for 18 hrs by propidium iodide staining based flow cytometry (reference value: 43.3%); assay type: functional
HCT-116 [16] = assay: Induction of cell cycle arrest in human HCT116 cells assessed as accumulation at G2/M phase at 10 uM incubated for 18 hrs by propidium iodide staining based flow cytometry (reference value: 25.1%); assay type: functional
HCT-116 [17] = assay: Induction of cell cycle arrest in human HCT116 cells assessed as accumulation at sub-G1 phase at 10 uM incubated for 18 hrs by propidium iodide staining based flow cytometry (reference value: 0.9%); assay type: functional
HCT-116 [18] = assay: Induction of cell cycle arrest in human HCT116 cells assessed as accumulation at G0/G1 phase at 20 uM incubated for 18 hrs by propidium iodide staining based flow cytometry (reference value: 43.3%); assay type: functional
HCT-116 [19] = assay: Induction of cell cycle arrest in human HCT116 cells assessed as accumulation at S phase at 20 uM incubated for 18 hrs by propidium iodide staining based flow cytometry (reference value: 26.8%); assay type: functional
HCT-116 [20] = assay: Induction of cell cycle arrest in human HCT116 cells assessed as accumulation at G2/M phase at 20 uM incubated for 18 hrs by propidium iodide staining based flow cytometry (reference value: 25.1%); assay type: functional
HCT-116 [21] = assay: Decrease in cell cycle associated protein expression in human HCT116 cells assessed as reduction in cyclin E expression at 5 to 20 uM after 24 hrs by Western blot analysis; assay type: functional, cell-based
HCT-116 [22] = assay: Downregulation of MCM4 protein expression in human HCT116 cells at 5 to 20 uM after 24 hrs by Western blot analysis; assay type: functional, cell-based
HCT-116 [23] = assay: Modulation of Skp2-p27 Axis in human HCT116 cells assessed as reduction in Skp2 mRNA level at 5 to 20 uM after 12 hrs by real-time PCR method; assay type: functional, cell-based
HCT-116 [24] = assay: Induction of cell cycle arrest in human HCT116 cells assessed as accumulation at sub-G1 phase at 5 uM incubated for 24 hrs by propidium iodide staining based flow cytometry (reference value: 4.8%); assay type: functional
HCT-116 [25] = assay: Induction of cell cycle arrest in human HCT116 cells assessed as accumulation at G0/G1 phase at 10 uM incubated for 24 hrs by propidium iodide staining based flow cytometry (reference value: 54.7%); assay type: functional
HCT-116 [26] = assay: Induction of cell cycle arrest in human HCT116 cells assessed as accumulation at S phase at 10 uM incubated for 24 hrs by propidium iodide staining based flow cytometry (reference value: 21.2%); assay type: functional
HCT-116 [27] = assay: Induction of cell cycle arrest in human HCT116 cells assessed as accumulation at G2/M phase at 20 uM incubated for 24 hrs by propidium iodide staining based flow cytometry (reference value: 15.7%); assay type: functional
HCT-116 [28] = assay: Induction of apoptosis in human HCT116 cells assessed as reduction in uncleaved full length caspase 7 level after 24 hrs by Western blot analysis; assay type: functional, cell-based
HCT-116 [29] = assay: Induction of apoptosis in human HCT116 cells assessed as increase in cleaved PARP level at 20 uM after 24 hrs by Western blot analysis; assay type: functional, cell-based
HCT-116 [30] = assay: Induction of apoptosis in human HCT116 cells assessed as reduction in Bcl-2 level at 5 to 20 uM after 24 hrs by Western blot analysis; assay type: functional, cell-based
HCT-116 [31] = assay: Induction of apoptosis in human HCT116 cells assessed as reduction in survivin level at 5 to 20 uM after 24 hrs by Western blot analysis; assay type: functional, cell-based
HCT-116 [32] = assay: Antitumor activity against human HCT116 cells xenografted in BALB/c nude mouse assessed as tumor weight at 10 mg/kg, ip administered thrice a week for 3.5 weeks measured on last day (reference value: 100%); assay type: functional
Mus musculus [33] = assay: In vivo modulation of Skp2-p27 axis in tumor of BALB/c nude mouse xenografted with human HCT116 cells assessed as downregulation of Skp2 mRNA level at 5 to 10 m/kg, ip administered thrice a week for 3.5 weeks by RT-PCR method; assay type: functional, organism-based
Mus musculus [34] = assay: In vivo modulation of Skp2-p27 axis in tumor of BALB/c nude mouse xenografted with human HCT116 cells assessed as upregulation of p27 level at 5 to 10 m/kg, ip administered thrice a week for 3.5 weeks by Western blot analysis; assay type: functional, organism-based

With CN[C@H](C(=O)N[C@H](C(=O)N[C@@H]1C(=O)N(C)[C@@H]([C@@H](C)O)C(=O)N[C@@H](C(C)C)C(=O)N(C)[C@@H](CC(C)C)C(=O)N[C@@H](C(C)C)C(=O)N(C)[C@@H](C(C)C)C(=O)N(C)[C@@H](Cc2c[nH]c3cccc(OC)c23)C(=O)N[C@@H](C(C)C)C(=O)N[C@@H]([C@H](O)c2ccccc2)C(=O)N[C@@H](C(C)C)C(=O)O[C@@H]1C)C(C)C)C(C)C (H-[NMeV]VT[NMeT]V[NMeL]V[NMeV][NMeTrp(4-OMe)]V[Phe(3R-OH)]V; ester 3-C) the Activity (HCT-116 [1]) was 45.8%, the “fold change (FC)” value (HCT-116 [2]) was 4.898 and the “fold change (FC)” value (HCT-116 [3]) was 4.773. For the same compound, the “fold change (FC)” value (HCT-116 [4]) was 4.702, the “fold change (FC)” value (HCT-116 [5]) was 18.5 and the “fold change (FC)” value (HCT-116 [6]) was 7.527. The “fold change (FC)” value (HCT-116 [7]) was 6.779, the “fold change (FC)” value (HCT-116 [8]) was 7.557 and the “fold change (FC)” value (HCT-116 [9]) was 4.531. The “fold change (FC)” value (HCT-116 [10]) was 4.476, the “fold change (FC)” value (HCT-116 [11]) was 4.372 and the “fold change (FC)” value (HCT-116 [12]) was 4.177. For the same compound, the Activity (HCT-116 [13]) was 22.3%, the Activity (HCT-116 [14]) was 1.4% and the Activity (HCT-116 [15]) was 51.4%. The Activity (HCT-116 [16]) was 15.4%, the Activity (HCT-116 [17]) was 1.8% and the Activity (HCT-116 [18]) was 55.4%. The Activity (HCT-116 [19]) was 16%, the Activity (HCT-116 [20]) was 16.9% and the inhibition (HCT-116 [21]) was “Active”. For the same compound, the inhibition (HCT-116 [22]) was “Active”, the inhibition (HCT-116 [23]) was “Active” and the Activity (HCT-116 [24]) was 19%. The Activity (HCT-116 [25]) was 62.7%, the Activity (HCT-116 [26]) was 4.4% and the Activity (HCT-116 [27]) was 10.8%. For the same compound, the Activity (HCT-116 [28]) was “Dose-dependent effect”, the Activity (HCT-116 [29]) was “Active” and the Activity (HCT-116 [30]) was “Active”. The Activity (HCT-116 [31]) was “Active”, the Activity (HCT-116 [32]) was 47.9% and the inhibition (Mus musculus [33]) was “Active”. The Activity (Mus musculus [34]) was “Active”.
